# Test results as given in US8987256B2, “Oxo-heterocyclic substituted carboxylic acid derivatives and the use thereof” (Bayer Intellectual Property GmbH, priority 2008, dated 2015).
# How the values were obtained:
# [1] = molecular target: T1, recombinant guanylate cyclase reporter cell line (Rattus norvegicus, UniProt P20595); assay: sGC-activating activity in the CHO reporter cell in vitro; type: cell-based
# T1 construct: expressed in transfected cells; host or cells: CHO reporter cell line
# T1 sequence (P20595 1-619): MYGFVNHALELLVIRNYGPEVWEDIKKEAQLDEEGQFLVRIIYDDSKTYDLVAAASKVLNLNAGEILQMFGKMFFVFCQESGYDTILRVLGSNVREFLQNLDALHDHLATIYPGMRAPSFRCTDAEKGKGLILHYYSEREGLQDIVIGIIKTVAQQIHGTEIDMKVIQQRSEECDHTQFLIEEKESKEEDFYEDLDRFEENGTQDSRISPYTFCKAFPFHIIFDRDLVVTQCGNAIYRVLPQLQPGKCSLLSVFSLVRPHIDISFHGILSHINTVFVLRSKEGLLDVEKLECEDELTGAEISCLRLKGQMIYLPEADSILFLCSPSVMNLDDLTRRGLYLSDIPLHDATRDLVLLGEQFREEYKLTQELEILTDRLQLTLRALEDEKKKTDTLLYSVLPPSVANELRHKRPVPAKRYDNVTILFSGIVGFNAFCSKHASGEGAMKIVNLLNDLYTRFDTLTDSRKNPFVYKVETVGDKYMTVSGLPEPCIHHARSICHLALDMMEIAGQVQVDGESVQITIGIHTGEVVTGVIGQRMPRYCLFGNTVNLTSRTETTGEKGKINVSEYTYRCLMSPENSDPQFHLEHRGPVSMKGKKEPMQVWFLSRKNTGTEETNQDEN
# T1 sequence (P19686 1-690 partner): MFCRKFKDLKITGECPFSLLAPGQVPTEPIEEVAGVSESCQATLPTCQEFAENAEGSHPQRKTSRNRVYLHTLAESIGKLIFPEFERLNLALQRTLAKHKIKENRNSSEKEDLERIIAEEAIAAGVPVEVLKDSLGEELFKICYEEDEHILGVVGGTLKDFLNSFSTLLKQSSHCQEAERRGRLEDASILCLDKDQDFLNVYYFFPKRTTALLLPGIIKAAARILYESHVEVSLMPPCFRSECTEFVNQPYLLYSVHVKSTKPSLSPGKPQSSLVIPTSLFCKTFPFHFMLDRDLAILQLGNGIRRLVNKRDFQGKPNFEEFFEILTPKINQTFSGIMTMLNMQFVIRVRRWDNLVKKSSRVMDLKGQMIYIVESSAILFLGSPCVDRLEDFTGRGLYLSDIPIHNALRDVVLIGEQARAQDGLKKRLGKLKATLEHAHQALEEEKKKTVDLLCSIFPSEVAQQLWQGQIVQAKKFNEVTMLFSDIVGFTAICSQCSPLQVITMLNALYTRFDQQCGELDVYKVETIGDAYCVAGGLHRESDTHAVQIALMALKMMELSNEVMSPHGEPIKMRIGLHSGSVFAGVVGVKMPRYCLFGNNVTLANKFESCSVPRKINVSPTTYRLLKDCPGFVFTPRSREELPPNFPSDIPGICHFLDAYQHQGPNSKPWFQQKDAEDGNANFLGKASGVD
# Procedure: The cellular action of the compounds according to the invention is determined at a recombinant guanylate cyclase reporter cell line, as described in F. Wunder et al., Anal. Biochem. 339, 104-112 (2005).
# [2] = tested on: saphenous artery rings; assay: Vasorelaxant effect in vitro (phenylephrine-contracted artery rings); design: species or system Rabbits; details: concentration reducing phenylephrine-induced contraction by 50%
# Procedure: Rabbits are anesthetized and sacrificed by intravenous injection of thiopental sodium (about 50 mg/kg) and exsanguinated. The saphenous artery is removed and divided into rings 3 mm wide. The rings are mounted singly on in each case a pair of triangular hooks open at the end and made of 0.3 mm-thick special wire (Remanium®). Each ring is placed under an initial tension in 5 ml organ baths with Krebs-Henseleit solution which is at 37° C., is gassed with carbogen and has the following composition: NaCl 119 mM; KCl 4.8 mM; CaCl2×2H2O 1 mM; MgSO4×7H2O 1.4 mM; KH2PO4 1.2 mM; NaHCO3 25 mM; glucose 10 mM; bovine serum albumin 0.001%. The force of contraction is detected with Statham UC2 cells, amplified and digitized via A/D converters (DAS-1802 HC, Keithley Instruments, Munich) and recorded in parallel on chart recorders. Contractions are induced by addition of phenylephrine.
# After several (generally 4) control cycles, the substance to be investigated is added in each further run in increasing dosage, and the level of the contraction achieved under the influence of the test substance is compared with the level of the contraction reached in the last preceding run. The concentration necessary to reduce the contraction reached in the preceding control by 50% is calculated from this (IC50). The standard application volume is 5 μl. The proportion of DMSO in the bath solution corresponds to 0.1%.
# [3] = molecular target: T2, soluble guanylate cyclase (sGC) (Rattus norvegicus, UniProt P20595); assay: Activating action at the sGC enzyme in vitro (PPi detection, luciferase); type: biochemical; details: for EC50: read-out: EC50 (concentration at 50% of maximum efficacy), activating action at the sGC enzyme
# T2 construct: made in house; host or cells: baculovirus/Sf9 insect cells
# T2 sequence (P20595 1-619): T1 sequence (P20595 1-619)
# T2 sequence (P19686 1-690 partner): T1 sequence (P19686 1-690 partner)
# How it was run: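 Rat sGC (0–10 nM) preincubated 10 min at room temperature with compound in TEA buffer, pH 7.5; reaction started with GTP (1.25 mM solution). PPi formed read continuously by luciferase luminescence; stimulation expressed relative to unstimulated enzyme. Heme-free enzyme tested after 30 min with 25 μM ODQ.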
smiles,measurement,setting,value
"CC(C(C(=O)Nc1cccc(CC2(C(=O)O)CC2)c1)c1ccc(CN2N=C(c3ccccc3)OCC2=O)cc1)C(F)(F)F (single isomer, unassigned) [Example 164, 1-{3-[(4,4,4-trifluoro-3-methyl-2-{4-[(5-oxo-2-phenyl-5,6-dihydro-4H-1,3,4-oxadiazin-4-yl)methyl]phenyl}-butanoyl)amino]benzyl}cyclopropanecarboxylic acid]","MEC (minimum effective concentration), sGC-activating activity in the CHO reporter cell",[1],0.3 nM
same,IC50,[2],0.026 µM
same,"MEC (minimum effective concentration), activating action at the sGC enzyme",[3],0.5 nM
same,EC50,[3],0.0061 µM
"CC(C(C(=O)Nc1cccc(CC2(C(=O)O)CC2)c1)c1ccc(CN2N=C(c3ccccc3)OCC2=O)cc1)C(F)(F)F (single isomer, unassigned) [Example 166, 1-{3-[(4,4,4-trifluoro-3-methyl-2-{4-[(5-oxo-2-phenyl-5,6-dihydro-4H-1,3,4-oxadiazin-4-yl)methyl]phenyl}-butanoyl)amino]benzyl}cyclopropanecarboxylic acid]","MEC (minimum effective concentration), sGC-activating activity in the CHO reporter cell",[1],0.3 nM
same,IC50,[2],0.0049 µM
same,"MEC (minimum effective concentration), activating action at the sGC enzyme",[3],0.4 nM
same,EC50,[3],0.0024 µM
"CC(C(C(=O)Nc1cccc(CCC(=O)O)c1)c1ccc(CN2N=C(c3ccccc3)OCC2=O)cc1)C(F)(F)F (single isomer, unassigned) [Example 192, 3-{3-[(4,4,4-Trifluoro-3-methyl-2-{4-[(5-oxo-2-phenyl-5,6-dihydro-4H-1,3,4-oxadiazin-4-yl)methyl]phenyl}butanoyl)amino]phenyl}propanoic acid]","MEC (minimum effective concentration), sGC-activating activity in the CHO reporter cell",[1],3 nM
same,IC50,[2]; Oryctolagus cuniculus,0.356 µM
same,"MEC (minimum effective concentration), activating action at the sGC enzyme",[3],2.5 nM
same,EC50,[3],0.03 µM
"O=C(Nc1cc(F)cc(CC2(C(=O)O)CC2)c1)C(c1ccc(CN2N=C(c3ccccc3)OCC2=O)cc1)C1CCCC1 (single isomer, unassigned) [Example 237, 1-{3-[(Cyclopentyl{4-[(5-oxo-2-phenyl-5,6-dihydro-4H-1,3,4-oxadiazin-4-yl)methyl]phenyl}acetyl)amino]-5-fluorobenzyl}cyclopropanecarboxylic acid]","MEC (minimum effective concentration), sGC-activating activity in the CHO reporter cell",[1],1 nM
same,IC50,[2]; Oryctolagus cuniculus,0.158 µM
same,"MEC (minimum effective concentration), activating action at the sGC enzyme",[3],0.9 nM
same,EC50,[3],0.021 µM
"O=C(Nc1cccc(CC2(C(=O)O)CC2)c1)C(c1ccc(Cn2nc(-c3ccccc3)ccc2=O)cc1)C1CCCC1 (stereo not drawn) [Example 156, 1-{3-[(cyclopentyl{4-[(6-oxo-3-phenylpyridazin-1(6H)-yl)methyl]phenyl}acetyl)amino]benzyl}-cyclopropanecarboxylic acid]","MEC (minimum effective concentration), sGC-activating activity in the CHO reporter cell",[1],3 nM
same,IC50,[2]; Oryctolagus cuniculus,0.045 µM
same,"MEC (minimum effective concentration), activating action at the sGC enzyme",[3],0.2 nM
same,EC50,[3],0.0054 µM
"CC(C(C(=O)Nc1cc(CC2(C(=O)O)CC2)ccc1F)c1ccc(CN2N=C(c3ccccc3)OCC2=O)cc1)C(F)(F)F (stereo not drawn) [Example 186, 1-{4-fluoro-3-[(4,4,4-trifluoro-3-methyl-2-{4-[(5-oxo-2-phenyl-5,6-dihydro-4H-1,3,4-oxadiazin-4-yl)methyl]phenyl}butanoyl)amino]benzyl}-cyclopropanecarboxylic acid]","MEC (minimum effective concentration), sGC-activating activity in the CHO reporter cell",[1],0.2 nM
same,IC50,[2]; Oryctolagus cuniculus,0.037 µM
same,"MEC (minimum effective concentration), activating action at the sGC enzyme",[3],0.1 nM
same,EC50,[3],0.0015 µM
"O=C(Nc1cccc(CC2(C(=O)O)CC2)c1)[C@H](c1ccc(CN2N=C(c3ccccc3)OCC2=O)cc1)C1CCCC1 [Example 204, (+)-1-(3-{[(2S)-2-Cyclopentyl-2-{4-[(5-oxo-2-phenyl-5,6-dihydro-4H-1,3,4-oxadiazin-4-yl)-methyl]phenyl}acetyl]amino}benzyl)cyclopropane carboxylic acid]","MEC (minimum effective concentration), sGC-activating activity in the CHO reporter cell",[1],1 nM
same,IC50,[2]; Oryctolagus cuniculus,0.086 µM
same,"MEC (minimum effective concentration), activating action at the sGC enzyme",[3],0.5 nM
same,EC50,[3],0.018 µM
O=C(Nc1cccc(CC2(C(=O)O)CC2)c1)[C@H](c1ccc(CN2Cc3c(F)cccc3C2=O)cc1)C1CCCC1 [Example 214],"MEC (minimum effective concentration), sGC-activating activity in the CHO reporter cell",[1],0.1 nM
same,IC50,[2]; Oryctolagus cuniculus,0.011 µM
same,"MEC (minimum effective concentration), activating action at the sGC enzyme",[3],0.4 nM
same,EC50,[3],0.019 µM
O=C(O)CCc1ccc(F)c(NC(=O)[C@H](c2ccc(CN3N=C(c4ccccc4)OCC3=O)cc2)C2CCCC2)c1 [Example 224],"MEC (minimum effective concentration), sGC-activating activity in the CHO reporter cell",[1],1 nM
same,IC50,[2]; Oryctolagus cuniculus,0.49 µM
same,"MEC (minimum effective concentration), activating action at the sGC enzyme",[3],1 nM
same,EC50,[3],0.02 µM
